Assay results taken from the OPERA property sets (Mansouri et al. 2018).

SMILES	logP
CCCN(C=Nc1ccn(C2CC(F)C(CO)O2)c(=O)n1)CCC (stereo not given)	1.35
CC(C)N(C=Nc1ccn(C2CCC(CO)O2)c(=O)n1)C(C)C (stereo not given)	0.72
O=c1nc(N=CN2CCOCC2)ccn1C1CC(F)C(CO)O1 (stereo not given)	-0.68
CN(C)C=Nc1ccn(C2CCC(CO)O2)c(=O)n1 (stereo not given)	-0.95
O=c1nc(N=CN2CCOCC2)ccn1C1CCC(CO)O1 (stereo not given)	-0.97
O=c1nc(/N=C/N2CCCCC2)ccn1[C@H]1CC[C@@H](CO)O1	0.06
O=c1nc(N=CN2CCCC2)ccn1C1CC(F)C(CO)O1 (stereo not given)	-0.16
O=c1nc(N=CN2CCCC2)ccn1C1CCC(CO)O1 (stereo not given)	-0.47
CCN(C=Nc1ccn(C2CC(F)C(CO)O2)c(=O)n1)CC (stereo not given)	0.23
CN(C)C=Nc1ccn(C2CC(F)C(CO)O2)c(=O)n1 (stereo not given)	-0.64
CCCN(/C=N/c1ccn([C@H]2CC[C@@H](CO)O2)c(=O)n1)CCC	0.95
O=c1nc(/N=C/N2CCCCC2)ccn1[C@H]1C[C@H](F)[C@@H](CO)O1	0.36
CCN(/C=N/c1ccn([C@H]2CC[C@@H](CO)O2)c(=O)n1)CC	-0.06
Nc1ccn([C@H]2C[C@H](F)[C@@H](CO)O2)c(=O)n1	-0.89
CC(C)N(C=Nc1ccn(C2CC(F)C(CO)O2)c(=O)n1)C(C)C (stereo not given)	1.14
